Assay results from patent US12150940B2, “WASp-protecting small molecules, compositions, methods and uses thereof in the treatment of innate and acquired immune-related disorders or conditions” (BAR ILAN UNIVERSITY, priority 2016, dated 2024).

System: YFP-WASp R86C or Y107C
Test: WASp expression in WASp knockout Jurkat lines expressing only YFP-WASp R86C or Y107C (western blot)
Type: cell-based, human
Conditions: WAS−/−/WASp R86C or Y107C, vs control-treated cells
Procedure: The cells were then co-stimulated with anti-CD3 and anti-CD28 and analyzed by western blot as described in FIG. 14B. […] Relative protein expression was determined by densitometric analysis and is presented below the corresponding lanes.
CRISPR/CAS9 knockdown of endogenous WASp in T-cells was conducted according to published protocol (Ran F A et al, 2013). The vector pSpCas9 (BB)-2A-GFP (PX458) was purchased from Addgene, plasmid #48138. RNA guides were designed to target an intron/exon junction in the WAS gene, in order to eliminate gene silencing of exogenous YFP-WASp. RNA guide sequences aimed for WASp locus were constructed using the online CRISPR design tool algorithm (Zhang Lab) and NCBI gene. The guides which received the highest score were selected to be subcloned into the pSpCas9 (BB)-2A-GFP (PX458) vector.
The sequence present in WASp exons is bold. The sequence that is complementary to WASp intron (chromosome X, GRCh38.p7 nucleotides 1883-1890) is underlined. Knockout of endogenous WASp was conducted in Jurkat cells alone or in Jurkat cells stably expressing YFP-WASp containing the following mutations, R86C (as denoted by SEQ ID NO. 13 and encoded by SEQ ID NO. 14) or Y107C (as denoted by SEQ ID NO. 15 and encoded by SEQ ID NO. 16). […]
Cells exclusively expressing the YFP-WASp mutants were incubated with SMC #34 or solvent, stimulated and analyzed by western blot.

## CC1CCCC(C)N1C(=O)CSc1nnc(COc2cccc3cccnc23)o1 (stereo not shown) [SMC #34, 1-(2,6-dimethylpiperidin-1-yl)-2-[[5-(quinolin-8-yloxymethyl)-1,3,4-oxadiazol-2-yl]sulfanyl]ethanone]
  WASp expression in cells exclusively expressing the YFP-WASp mutants: increased WASp expression
